# Tests used:
# Assay in all cases: radiometric filter-binding kinase assay, Kinaseprofiler
# [1] = biological target: EPHB1 (human) (UniProt P54762); details: ATP 200 µM
# [2] = biological target: PIM3 (human) (UniProt Q86V86); details: ATP 155 µM
# [3] = biological target: STK17A (human) (UniProt Q9UEE5); details: ATP 10 µM
# [4] = biological target: DAPK1 (human) (UniProt P53355); details: ATP 70 µM
# [5] = biological target: CAMK1 (human) (UniProt Q14012); details: ATP 200 µM
# Sequence of CAMK1 (human) (Q14012 whole entry, looked up): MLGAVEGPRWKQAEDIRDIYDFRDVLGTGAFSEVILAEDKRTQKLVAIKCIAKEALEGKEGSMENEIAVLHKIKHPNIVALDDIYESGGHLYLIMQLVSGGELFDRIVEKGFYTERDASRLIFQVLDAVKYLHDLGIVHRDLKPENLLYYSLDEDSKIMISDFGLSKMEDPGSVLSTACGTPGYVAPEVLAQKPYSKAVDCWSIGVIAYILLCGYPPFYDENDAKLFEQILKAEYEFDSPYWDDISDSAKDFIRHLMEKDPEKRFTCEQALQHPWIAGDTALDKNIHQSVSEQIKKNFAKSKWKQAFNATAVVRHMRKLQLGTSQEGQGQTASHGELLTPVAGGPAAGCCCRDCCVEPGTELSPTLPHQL
# Sequence of EPHB1 (human) (P54762 whole entry, looked up): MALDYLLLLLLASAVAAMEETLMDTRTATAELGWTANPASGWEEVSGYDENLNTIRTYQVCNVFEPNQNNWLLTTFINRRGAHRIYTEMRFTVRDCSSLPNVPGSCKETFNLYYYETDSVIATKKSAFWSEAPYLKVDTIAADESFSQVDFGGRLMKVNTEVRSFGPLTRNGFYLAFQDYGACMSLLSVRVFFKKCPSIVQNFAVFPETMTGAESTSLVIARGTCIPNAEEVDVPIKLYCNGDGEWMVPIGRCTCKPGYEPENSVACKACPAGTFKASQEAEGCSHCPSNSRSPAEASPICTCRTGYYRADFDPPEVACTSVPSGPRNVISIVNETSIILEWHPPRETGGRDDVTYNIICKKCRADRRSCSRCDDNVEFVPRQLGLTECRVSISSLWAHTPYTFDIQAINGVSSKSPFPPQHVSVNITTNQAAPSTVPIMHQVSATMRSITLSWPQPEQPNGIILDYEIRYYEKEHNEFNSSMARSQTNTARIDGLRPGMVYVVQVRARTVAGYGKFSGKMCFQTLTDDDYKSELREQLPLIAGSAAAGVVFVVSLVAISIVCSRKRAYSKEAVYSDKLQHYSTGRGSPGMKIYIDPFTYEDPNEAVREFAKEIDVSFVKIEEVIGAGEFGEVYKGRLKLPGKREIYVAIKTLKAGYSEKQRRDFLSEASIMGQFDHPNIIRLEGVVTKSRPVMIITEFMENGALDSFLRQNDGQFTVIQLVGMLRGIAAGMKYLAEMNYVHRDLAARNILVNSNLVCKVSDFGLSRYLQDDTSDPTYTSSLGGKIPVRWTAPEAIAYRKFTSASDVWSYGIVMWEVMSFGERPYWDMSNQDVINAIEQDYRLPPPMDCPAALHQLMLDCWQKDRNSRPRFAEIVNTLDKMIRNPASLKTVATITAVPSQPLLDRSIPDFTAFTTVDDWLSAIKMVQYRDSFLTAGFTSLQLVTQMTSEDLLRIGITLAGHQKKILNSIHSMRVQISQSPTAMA
# Sequence of DAPK1 (human) (P53355 whole entry, looked up): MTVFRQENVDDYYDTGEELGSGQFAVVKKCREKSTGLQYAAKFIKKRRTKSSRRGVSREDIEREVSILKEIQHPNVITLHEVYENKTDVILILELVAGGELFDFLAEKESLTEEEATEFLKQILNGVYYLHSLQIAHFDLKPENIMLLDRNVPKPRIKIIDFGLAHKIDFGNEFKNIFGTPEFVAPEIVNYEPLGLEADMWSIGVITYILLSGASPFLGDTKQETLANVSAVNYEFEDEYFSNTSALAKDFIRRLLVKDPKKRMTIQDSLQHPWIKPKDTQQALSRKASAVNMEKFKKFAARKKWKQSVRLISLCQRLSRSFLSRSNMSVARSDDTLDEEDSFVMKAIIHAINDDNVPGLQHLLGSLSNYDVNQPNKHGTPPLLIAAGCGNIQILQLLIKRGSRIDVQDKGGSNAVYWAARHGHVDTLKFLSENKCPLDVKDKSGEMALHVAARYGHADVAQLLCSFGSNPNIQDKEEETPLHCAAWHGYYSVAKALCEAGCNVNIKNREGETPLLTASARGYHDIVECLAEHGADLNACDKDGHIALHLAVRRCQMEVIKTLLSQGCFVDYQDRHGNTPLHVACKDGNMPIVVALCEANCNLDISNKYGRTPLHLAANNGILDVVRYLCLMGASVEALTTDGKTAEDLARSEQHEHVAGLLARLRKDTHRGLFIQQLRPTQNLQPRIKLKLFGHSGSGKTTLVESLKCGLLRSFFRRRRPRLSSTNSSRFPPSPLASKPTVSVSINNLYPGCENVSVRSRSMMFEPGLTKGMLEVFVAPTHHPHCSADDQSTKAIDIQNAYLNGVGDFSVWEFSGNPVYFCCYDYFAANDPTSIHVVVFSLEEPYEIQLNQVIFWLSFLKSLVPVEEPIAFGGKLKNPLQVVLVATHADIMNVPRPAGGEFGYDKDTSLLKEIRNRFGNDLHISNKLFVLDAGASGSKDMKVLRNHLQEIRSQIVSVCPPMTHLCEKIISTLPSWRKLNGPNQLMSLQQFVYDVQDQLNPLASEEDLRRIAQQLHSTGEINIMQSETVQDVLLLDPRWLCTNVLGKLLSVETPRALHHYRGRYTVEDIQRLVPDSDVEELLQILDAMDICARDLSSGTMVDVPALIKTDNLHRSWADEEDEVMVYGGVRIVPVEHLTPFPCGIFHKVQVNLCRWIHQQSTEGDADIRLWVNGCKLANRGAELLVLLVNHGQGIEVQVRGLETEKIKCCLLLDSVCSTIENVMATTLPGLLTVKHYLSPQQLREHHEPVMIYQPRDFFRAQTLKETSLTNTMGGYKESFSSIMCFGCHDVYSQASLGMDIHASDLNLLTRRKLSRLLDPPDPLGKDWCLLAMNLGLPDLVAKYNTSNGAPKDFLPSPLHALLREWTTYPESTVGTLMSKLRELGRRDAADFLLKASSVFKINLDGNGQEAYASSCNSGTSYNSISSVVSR
# Sequence of STK17A (human) (Q9UEE5 whole entry, looked up): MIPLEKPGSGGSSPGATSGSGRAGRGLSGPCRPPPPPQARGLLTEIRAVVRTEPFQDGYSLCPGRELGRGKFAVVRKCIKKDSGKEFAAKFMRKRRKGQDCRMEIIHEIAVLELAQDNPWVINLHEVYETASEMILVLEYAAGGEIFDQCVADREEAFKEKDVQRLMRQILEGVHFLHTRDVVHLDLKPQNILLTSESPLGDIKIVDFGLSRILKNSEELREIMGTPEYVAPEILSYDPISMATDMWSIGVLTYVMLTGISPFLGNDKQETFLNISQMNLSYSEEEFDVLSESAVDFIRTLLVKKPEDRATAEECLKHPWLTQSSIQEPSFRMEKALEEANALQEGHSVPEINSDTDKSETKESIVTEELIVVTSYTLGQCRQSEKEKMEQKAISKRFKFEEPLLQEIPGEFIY
smiles,measurement,setting,value
O=C1Nc2ccccc2/C1=C1\Nc2ccccc2\C1=N/O,residual activity,[1]; compound 1.0 µM,59%
same,residual activity,[1]; compound 10.0 µM,13%
same,residual activity,[2]; compound 1.0 µM,94%
same,residual activity,[2]; compound 10.0 µM,90%
same,residual activity,[3]; compound 1.0 µM,6%
same,residual activity,[3]; compound 10.0 µM,4%
same,residual activity,[4]; compound 1.0 µM,91%
same,residual activity,[4]; compound 10.0 µM,67%
same,residual activity,[5]; compound 1.0 µM,72%
same,residual activity,[5]; compound 10.0 µM,21%

# Source: the kinase profiling compilation of Christmann-Franck et al. (2016)
